# Like-named read-outs stand apart in the source and are kept apart here.
# Target: PHGDH (Homo sapiens (Human), UniProt O43175)
# Assay: 3-Phosphoglycerate Dehydrogenase (PHGDH) Fluorescence Intensity Assay, run at two NAD/3-PG ratios: PHGDH_HIGH_NAD/3-PG (250 μM NAD/500 μM 3-PG) and PHGDH_500_NAD/3-PG (500 μM NAD/500 μM 3-PG)
# Assay type: biochemical
# [1] = 250 μM NAD/500 μM 3-PG, read-out: IC50 (PHGDH_HIGH_NAD/3-PG)
# [2] = 500 μM NAD/500 μM 3-PG, read-out: IC50 (PHGDH_500_NAD/3-PG)
# Chain of PHGDH (O43175 2-533 limits assumed): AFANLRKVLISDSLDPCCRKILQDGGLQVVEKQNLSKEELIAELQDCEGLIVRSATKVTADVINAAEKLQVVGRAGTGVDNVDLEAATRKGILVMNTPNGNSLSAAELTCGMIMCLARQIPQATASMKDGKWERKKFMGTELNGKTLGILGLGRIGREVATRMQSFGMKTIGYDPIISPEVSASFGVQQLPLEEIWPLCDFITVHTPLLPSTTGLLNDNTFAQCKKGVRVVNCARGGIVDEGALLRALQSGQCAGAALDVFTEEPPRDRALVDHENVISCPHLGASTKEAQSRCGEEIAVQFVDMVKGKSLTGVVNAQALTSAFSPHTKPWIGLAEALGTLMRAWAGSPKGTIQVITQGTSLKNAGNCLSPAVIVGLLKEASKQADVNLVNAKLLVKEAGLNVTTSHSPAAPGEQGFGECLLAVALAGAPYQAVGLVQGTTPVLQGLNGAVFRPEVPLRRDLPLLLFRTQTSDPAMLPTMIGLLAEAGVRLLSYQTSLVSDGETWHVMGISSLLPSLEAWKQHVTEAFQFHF
structure (smiles),measurement,setting,value
"COC(=O)C1(S(=O)(=O)c2ccc([C@@H](C)NC(=O)c3cc4c(Cl)cc(C)cc4n3C)cc2)CCCC1 [Example 05-008, methyl 1-{4-[(1R)-1-[(4-chloro-1,6-dimethyl-1H-indol-2-yl)formamido]ethyl]benzenesulfonyl}cyclopentane-1-carboxylate]",IC50,[1],18300 nM
"Cc1cc(Cl)c2cc(C(=O)N[C@H](C)c3ccc(S(=O)(=O)CC(=O)OCC4COC4)cc3)n(C)c2c1 [Example 09-017, oxetan-3-ylmethyl 2-{4-[(1R)-1-[(4-chloro-1,6-dimethyl-1H-indol-2-yl)formamido]ethyl]benzenesulfonyl}acetate]",IC50,[1],177 nM
"Cc1cc(Cl)c2cc(C(=O)N[C@H](C)c3ccc([S@@+]([O-])CC(=O)O)cc3)n(C)c2c1 [Example 12-006, 2-[(S)-4-[(1R)-1-[(4-chloro-1,6-dimethyl-1H-indol-2-yl)formamido]ethyl]benzenesulfinyl]acetic acid]",IC50,[1],61 nM
same,IC50,[2],95 nM
"Cc1cc(Cl)c2cc(C(=O)N[C@H](C)c3ccc(S(=O)(=O)CC(=O)OC(C)C)cc3)n(C)c2c1 [Example 01-024, propan-2-yl 2-{4-[(1R)-1-[(4-chloro-1,6-dimethyl-1H-indol-2-yl)formamido]ethyl]benzenesulfonyl}acetate]",IC50,[1],3550 nM
"COC(=O)CS(=O)(=O)c1ccc(C(C)NC(=O)c2cc3c(Cl)cc(I)cc3n2C)cc1 (stereo not drawn) [Example 01-020, methyl 2-(4-{1-[(4-chloro-6-iodo-1-methyl-1H-indol-2-yl)formamido]ethyl}benzenesulfonyl)acetate]",IC50,[1],1790 nM
"COC(=O)CS(=O)(=O)c1ccc([C@H](C)NC(=O)c2cc(-c3ccccc3)nn2C)cn1 [Example 02-009, methyl 2-({5-[(1S)-1-[(1-methyl-3-phenyl-1H-pyrazol-5-yl)formamido]ethyl]pyridin-2-yl}sulfonyl)acetate]",IC50,[1],> 100000 nM
"Cc1cc(Cl)c2cc(C(=O)N[C@H](C)c3ccc(S(=O)(=O)CC(=O)O)cc3)n(C)c2c1C [Example 03-003, 2-{4-[(1R)-1-[(4-chloro-1,6,7-trimethyl-1H-indol-2-yl)formamido]ethyl]benzenesulfonyl}acetic acid]",IC50,[1],13 nM
same,IC50,[2],22 nM
"CC(=O)OCC(COC(C)=O)COC(=O)CS(=O)(=O)c1ccc([C@@H](C)NC(=O)c2cc3c(Cl)cc(C)cc3n2C)cc1 [Example 09-022, 3-(acetyloxy)-2-[(acetyloxy)methyl]propyl 2-{4-[(1R)-1-[(4-chloro-1,6-dimethyl-1H-indol-2-yl)formamido]ethyl]benzenesulfonyl}acetate]",IC50,[1],431 nM
"CCOC(=O)CS(=O)(=O)c1ccc([C@@H](C)NC(=O)c2cc(-c3ccccc3)nn2C)cc1 [Example 02-003, ethyl 2-{4-[(1R)-1-[(1-methyl-3-phenyl-1H-pyrazol-5-yl)formamido]ethyl]benzenesulfonyl}acetate]",IC50,[1],3180 nM
"C#Cc1cc(Cl)c2cc(C(=O)NC(C)c3ccc(S(=O)(=O)CC(=O)OC)cc3)n(C)c2c1 (stereo not drawn) [Example 01-008, methyl 2-(4-{1-[(4-chloro-6-ethynyl-1-methyl-1H-indol-2-yl)formamido]ethyl}benzenesulfonyl)acetate]",IC50,[1],1690 nM
"Cc1cc2c(cc(C(=O)N[C@H](CO)c3ccc([S@@+]([O-])CC(=O)OC(C)C)cc3)n2C)c(F)c1F [Example 13-004, propan-2-yl 2-[(S)-4-[(1S)-1-[(4,5-difluoro-1,6-dimethyl-1H-indol-2-yl)formamido]-2-hydroxyethyl]benzenesulfinyl]acetate]",IC50,[2],690 nM
"Cc1cc(Cl)c2cc(C(=O)N[C@H](C)c3ccc([S+]([O-])CC(=O)O)cc3)n(C)c2c1 (stereo partly drawn) [Example 12-004, 2-{4-[(1R)-1-[(4-chloro-1,6-dimethyl-1H-indol-2-yl)formamido]ethyl]benzenesulfinyl}acetic acid]",IC50,[1],11 nM
same,IC50,[2],18 nM
"COC(=O)CS(=O)(=O)c1ccc([C@@H](C)NC(=O)c2cc3cc(Cl)ccc3n2C)cc1 [Example 01-019, methyl 2-{4-[(1R)-1-[(5-chloro-1-methyl-1H-indol-2-yl)formamido]ethyl]benzenesulfonyl}acetate]",IC50,[1],2480 nM
"Cc1cc2c(cc(C(=O)N[C@H](CO)c3ccc([S@+]([O-])CC(=O)O)cc3)n2C)c(F)c1F [Example 12-009, 2-[(R)-4-[(1S)-1-[(4,5-difluoro-1,6-dimethyl-1H-indol-2-yl)formamido]-2-hydroxyethyl]benzenesulfinyl]acetic acid]",IC50,[2],32 nM
"Cc1nc2c(cc(C(=O)N[C@H](C)c3ccc(S(=O)(=O)CC(=O)O)cc3)n2C)c(Cl)c1Cl [Example 03-010, 2-{4-[(1R)-1-({4,5-dichloro-1,6-dimethyl-1H-pyrrolo[2,3-b]pyridin-2-yl}formamido)ethyl]benzenesulfonyl}acetic acid]",IC50,[1],170 nM
"C[C@@H](NC(=O)c1cc(-c2ccc(F)cc2)nn1C)c1ccc(S(=O)(=O)C2(C(=O)O)CCOCC2)cc1 [Example 08-003, 4-{4-[(1R)-1-{[3-(4-fluorophenyl)-1-methyl-1H-pyrazol-5-yl]formamido}ethyl]benzenesulfonyl}oxane-4-carboxylic acid]",IC50,[1],139 nM
"COC(=O)C1(S(=O)(=O)c2ccc([C@@H](C)NC(=O)c3cc(-c4ccc(F)cc4)nn3C)cc2)CCCC1 [Example 06-003, methyl 1-{4-[(1R)-1-{[3-(4-fluorophenyl)-1-methyl-1H-pyrazol-5-yl]formamido}ethyl]benzenesulfonyl}cyclopentane-1-carboxylate]",IC50,[1],11700 nM
"Cc1cc(Cl)c2cc(C(=O)N[C@H](CO)c3ccc(S(=O)(=O)CC(=O)O[C@H]4CCOC4)cc3)n(C)c2c1 [Example 09-030, (3S)-oxolan-3-yl 2-{4-[(1S)-1-[(4-chloro-1,6-dimethyl-1H-indol-2-yl)formamido]-2-hydroxyethyl]benzenesulfonyl}acetate]",IC50,[1],85 nM
"CCOC(=O)CS(=O)(=O)c1ccc([C@@H](C)NC(=O)c2cc3cc(Cl)c(-c4cnn(CCN5CCOCC5)c4)cc3n2C)cc1 [Example 01-025, ethyl 2-{4-[(1R)-1-[(5-chloro-1-methyl-6-{1-[2-(morpholin-4-yl)ethyl]-1H-pyrazol-4-yl}-1H-indol-2-yl)formamido]ethyl]benzenesulfonyl}acetate]",IC50,[1],742 nM
"C[C@@H](NC(=O)c1cc2cc(Cl)ccc2n1C)c1ccc(S(=O)(=O)[C@@H](C)C(=O)O)cc1 [Example 07-006, (2S)-2-{4-[(1R)-1-[(5-chloro-1-methyl-1H-indol-2-yl)formamido]ethyl]benzenesulfonyl}propanoic acid]",IC50,[1],238 nM
"Cc1cc2c(cc(C(=O)N[C@H](CO)c3ccc(S(=O)(=O)CC(=O)OCCCO)cc3)n2C)c(F)c1F [Example 09-038, 3-hydroxypropyl 2-{4-[(1S)-1-[(4,5-difluoro-1,6-dimethyl-1H-indol-2-yl)formamido]-2-hydroxyethyl]benzenesulfonyl}acetate]",IC50,[2],255 nM
"Cc1cc(Cl)c2cc(C(=O)N[C@H](C)c3ccc(S(=O)(=O)C4(C(=O)O)CC4)cc3)n(C)c2c1 [Example 07-013, 1-{4-[(1R)-1-[(4-chloro-1,6-dimethyl-1H-indol-2-yl)formamido]ethyl]benzenesulfonyl}cyclopropane-1-carboxylic acid]",IC50,[1],10 nM
same,IC50,[2],15 nM
"COCCOC(=O)CS(=O)(=O)c1ccc([C@@H](C)NC(=O)c2cc(-c3ccccc3)nn2C)cc1 [Example 10-001, 2-methoxyethyl 2-{4-[(1R)-1-[(1-methyl-3-phenyl-1H-pyrazol-5-yl)formamido]ethyl]benzenesulfonyl}acetate]",IC50,[1],1450 nM
